Assay results as given in patent publication US20170326249A1, “ANTIBODY-DRUG CONJUGATE OF AN ANTI-GLYPICAN-3 ANTIBODY AND A TUBULYSIN ANALOG, PREPARATION AND USES” (Bristol-Myers Squibb Company, priority 2016, published 2017).

Columns and labels:
Assay type in all cases: cell-based
[1] = system: H446 small-cell lung cancer cells; assay: 3H thymidine incorporation proliferation assay, H446; details: Homo sapiens, NCI-H446, 72 h
Method: (§1) The human tumor cell lines were obtained from the American Type Culture Collection (ATCC), P.O. Box 1549, Manassas, Va. 20108, USA, and cultured according to instructions from ATCC. Cells were seeded at 1.0×10^4 cells/well in 96-well plates. […] Plates were allowed to incubate for 72 h. The plates were pulsed with 1.0 μCi of ^3H-thymidine per well for the last 24 hours of the total incubation period, harvested, and read on a Top Count Scintillation Counter (Packard Instruments, Meriden, Conn.). The EC50 values—the ADC concentration at which cell proliferation was reduced by 50%—were determined using PRISM™ software, version 4.0 (GraphPad Software, La Jolla, Calif., USA).

[2] = system: HuH7D12 hepatocellular carcinoma cell line; assay: 3H thymidine incorporation proliferation assay, HuH7D12; details: Homo sapiens, Huh-7D12; HuH7D12, Table 1
Method: as §1
(§2) The EC50 so values, along with those against HepG2 and HuH7D12 hepatocellular carcinoma cell lines, are shown in Table 1, plus data for the drug alone (formula (II)). […] That is, release of the drug from the conjugate is efficient.

[3] = system: HepG2 hepatocellular carcinoma cell line; assay: 3H thymidine incorporation proliferation assay, HepG2; details: Homo sapiens; HepG2, Table 1
Method: as §1, §2

[4] = system: Hep3B hepatocellular carcinoma cells; assay: 3H thymidine incorporation proliferation assay, Hep3B; details: Homo sapiens, 72 h
Method: as §1

CCCN(C(=O)[C@@H](NC(=O)[C@H]1CCCCN1C)[C@@H](C)CC)[C@H](C[C@@H](OC(C)=O)c1nc(C(=O)N[C@@H](Cc2ccc(N)cc2)C[C@H](C)C(=O)O)cs1)C(C)C [Unconjugated Drug (II)]
EC50 [1]: 0.2 nM | EC50 [2]: 0.2 nM | EC50 [3]: 0.3 nM | EC50 [4]: 0.2 nM
